From patent US20150250166A1, “NOOTKATONE AS AN INSECTICIDE AND INSECT REPELLENT” (ALLYLIX, INC., priority 2012, published 2015)

Test system: adult cat fleas (Ctenocephalides felis)
Assay: Direct spray knockdown of adult cat fleas
Format: in vivo
Settings: 10% nootkatone; for cat fleas knocked down, average count of 5 trials (of 10): 0.1% BHT in isopropanol
Protocol: A direct spray formulation, containing 10% nootkatone, 0.1% butylated hydroxytoluene (BHT) in isopropanol, stored at ambient temperature and humidity, was tested for efficacy for knockdown and mortality among adult cat fleas (Ctenocephalides felis). Five replicates of 10 adult cat fleas (El Labs Inc (Soquel, Calif.)) were emptied from 9 dram vials into 5 gallon HDPE Payliner® pail liners lined with paper towels. Each replicate was sprayed manually with 1 gram±0.1 grams of the 10% nootkatone formulation from the rim of the pail liner. The spray bottle was weighed before and after treating each replicate to confirm the weight of the test sample dispensed. Five control replicates of 10 adult cat fleas were treated with isopropyl alcohol, following the same protocol. The study provided a single treatment of 10% nootkatone formulation or isopropyl alcohol. All spraying took place in a vented, stainless steel Peet Grady chamber (6×6×6 ft).
The average weight of isopropanol and 10% nootkatone formulation applied to the five replicates was 1.0 g and 1.07 g, respectively. […] Knockdown was defined as the failure of the cat flea to jump even following exhalation of a technician into the pail liner.

C=C(C)[C@@H]1CCC2=CC(=O)C[C@@H](C)[C@]2(C)C1 [nootkatone, 4,4a,5,6,7,8-hexahydro-6-isopropenyl-4,4a-dimethyl-2(3H)-naphtalenone]
cat flea knockdown efficacy, in words: not effective in knocking down cat fleas
cat fleas knocked down, average count of 5 trials (of 10) (0.5 min): 0.2
cat fleas knocked down, average count of 5 trials (of 10) (1 min): 0.2
cat fleas knocked down, average count of 5 trials (of 10) (2 min): 0.4
cat fleas knocked down, average count of 5 trials (of 10) (3 min): 0
cat fleas knocked down, average count of 5 trials (of 10) (4 min): 0.2
cat fleas knocked down, average count of 5 trials (of 10) (5 min): 0.4
cat fleas knocked down, average count of 5 trials (of 10) (15 min): 0
fleas knocked down, in words (15 minutes): no fleas were knocked down
fleas knocked down (within the first 5 minutes): no more than 4%
